# Data taken from patent US5567704A, “R-enatiomerically pure hydroxylated xanthine compounds to treat baldness” (priority 1995, dated 1996).
# How the values were obtained:
# HUVEC = assay: adhesion of U937 cells to activated HUVEC; format: cell-based, human; settings: 250 μM, FIG. 21
# Protocol: Murine peritoneal exudate cell macrophages (PEC) were isolated by perfusion of mouse peritoneum and plated into 96-well trays at 5×10^5 cells per well. Cells were stimulated with 5 μg/ml Salmonella abortus equi -derived endotoxin (LPS; Sigma Chemical Co., L-1887) or […] IL-1α (Genzyme; Cambridge, Mass.) with or without the addition of CT1501R added to the cultures one hour prior to addition of the stimulus. At various times thereafter, supernatants were removed and levels of either TNF-α or IL-1α were assayed using commercial 96-well microtiter immunoassay kits (Genzyme; TNF; Endogen, Boston, Mass.; IL-1α) according to manufacturer's specifications. For the adhesion studies, early passage human umbilical vein endothelial cells (HUVEC) were obtained. from commercial suppliers (Clonetics, San Diego, Calif. or Cell Systems, Seattle, Wash.) and cultured in defined, Hepes buffered, serum free medium (Cell Systems, cat 301-180) supplemented with acidic FGF (Cell Systems cat 401-111). 4000 cells were plated into each well of a 96-well microtiter plate and allowed to incubate for 72 hrs at 37° C. […] After addition of […] Hanks Balanced Salt Solution (HBSS), the microtiter plate was then analyzed on a Millipore Cytofluor fluorescent plate reader (excitation 488 nm; emission 525 nm). […]
# [1] = system: lysophosphatidic acid acyl transferase (LPAAT); assay: in vitro inhibition of LPAAT in 3T3 Ras-transformed fibroblasts stimulated with IL-1β; format: cell-based
# Protocol: FIG. 17 illustrates a comparison of CT1501R, its S isomer CT1501S, and PTX on in vitro inhibition of lysophosphatidic acid acyl transferase (LPAAT), an enzyme involved in second messenger signaling. […] LPAAT activity was determined in 3T3 Ras-transformed fibroblasts stimulated with IL-1β.
# One in vitro assay measures inhibition of the relevant enzymes lysophosphatidic acid acyltransferase (LPAAT) and phosphatidic acid phosphoryl hydrolase (PAPH). The assay involves incubating of target cells with a primary stimulus (e.g., a variety of cytokines, growth factors, oncogene products, putative therapeutic agents, irradiation, viral infection, toxins, bacterial infection and the products thereof, and any stimulus which, if not counteracted, has a deleterious effect on the target cell) in the presence or absence of an inventive compound at varying dosage levels. Target cells include, for example, subcellular entities, such as, microsomes derived from mesenchymal and/or ectodermal cells, particularly microsomes from marrow stromal cells or human or rat mesangial cells; microsomes or synaptosomes derived from brain; plasma membrane-enriched microsomes, plasma membranes derived as described in Bursten et at. (J. Biol. Chem. 226:20732-20743, 1991 ), or detergent-solubilized microsomes; synaptosomes, and membranes or other cell preparations solubilized using, for example, NP-40, Miranal, SDS or other neutral detergents; and detergent-solubilized, recombinant, or further purified preparations of cell proteins, including the proteins LPAAT and/or PAPH. After incubation for short periods of time, cell lipids are extracted and assayed by […] according to standard procedures. Briefly, lipids are extracted using, for example, chloroform:methanol 2:1 (v/v), and the extracts are then subjected to HPLC as described in Bursten and Harris, Biochemistry 30:6195-6203, 1991. A Rainin® mu-Porasil column is used with a 3:4 hexane:propanol organic carrier and a 1-10% water gradient during the first 10 minutes of separation. Detection of the peaks in the elution pattern is by absorption in the range of ultraviolet which detects isolated double bonds. The relevant peaks of unsaturated PA and DAG are shown in the elution pattern. It is important to note that the assay method permits discrimination between various forms of PA and DAG so that those relevant to the pathway affected by the (R) or (S) compounds of the invention can be measured directly. Confirmation of the nature of the acyl substituents of these components is accomplished using fast-atom bombardment mass spectroscopy. Thus, the relevant unsaturated (non-arachidonic) PA and DAG subspecies may be detected. The time periods employed are 5-60 seconds after stimulation with the primary stimulus, such as a cytokine. This technique permits assessment of the levels of various lipid components as a function of time.
smiles,measurement,setting,value
"C[C@@H](O)CCCCn1c(=O)c2c(ncn2C)n(C)c1=O [CT1501R, (R)-1-(5-hydroxyhexyl)-3,7-dimethylxanthine]",adhesiveness of activated HUVEC for U937 cells,"HUVEC; 1 hour prior to TNF-α, IL-1α or LPS",marked suppression in the relative adhesiveness of the activated HUVEC
same,background attachment of U937 cells to HUVEC,HUVEC; non-activated HUVEC,no significant effect on background attachment of U937 cells to HUVEC
same,potency relative to the S enantiomer,[1],many times more potent than the corresponding S enantiomer
same,potency relative to the racemic mixture (M1),[1],two to three time more potent than the racemic mixture
same,inhibition of LPAAT enzyme activity,"[1]; 3T3 Ras-transformed fibroblasts, IL-1β, FIG. 17",significantly inhibited enzyme activity
